Test in all cases: growth of human tumour cells (NCI), 48 h
The test system of assay [1] is A498 renal.
Assay [2] has as its system ACHN renal.
Assay [3] deals with CCRF-CEM leukemia.
In assay [4] the test system is EKVX NSCLC.
Assay [5] deals with LOX IMVI melanoma.
For assay [6], the system named is MDA-MB-435.
For assay [7], the system named is NCI-H23 lung.
Assay [8] relates to OVCAR-3 ovarian.
Assay [9] deals with OVCAR-8 ovarian.
Assay [10] relates to PC-3 prostate.
Assay [11] concerns RXF 393 renal.
For assay [12], the system named is UACC-62 melanoma.

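Values below derive from 48-hour exposures of cells grown in 96-well plates, with endpoints linearly interpolated between the two concentrations bracketing the appropriate inhibition level. TGI: total growth inhibition.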

Regarding `CC(=O)O[C@H]1CC[C@@]2(C)C(=CC[C@@H]3[C@@H]2CC[C@]2(C)C(=O)/C(=C\c4ccccc4)C[C@@H]32)C1`, the TGI in assay [1], in assay [2], in [3], in assay [4], in assay [5] and in assay [6] was above 100 µM each time. Further, the TGI in assay [7], in [8], in [9], in assay [10], in assay [11] and in [12] was above 100 µM throughout.

Consider `CC(=O)OCC1OC(Sc2nc(-c3ccccc3)c(C#N)c(=O)n2C2OC(COC(C)=O)C(OC(C)=O)C(OC(C)=O)C2OC(C)=O)C(OC(C)=O)C(OC(C)=O)C1OC(C)=O` (stereo unspecified), for which the TGI in [1], in assay [2], in assay [4], in [5], in assay [6] and in assay [7] was above 100 µM each time. Besides, the TGI in [8], in assay [9], in assay [10], in assay [11] and in assay [12] was above 100 µM in each case.

Take `C[C@@H](NC(=O)Nc1cccc(C(=O)Nc2cc(C(C)(C)C)ccc2C(=O)O)n1)c1ccccc1`: the TGI in [1] is above 100 µM; in [2], above 100 µM; in assay [4], above 100 µM; in [5], 36.7 µM; in assay [6], above 100 µM; in assay [7], above 100 µM. Further, the TGI in assay [8] is 51.1 µM; in assay [9], above 100 µM; in [10] it was 79.1 µM; in assay [11], 38.5 µM; in assay [12] it was 50.9 µM.

For the compound `O=C(O)c1ccc2nc(-c3ccccn3)c(-c3ccccn3)nc2c1`, the TGI in assay [1], in assay [2], in assay [3], in [4], in assay [5] and in assay [6] was above 100 µM each time. Moreover, the TGI in assay [7], in assay [9], in assay [10], in assay [11] and in assay [12] was above 100 µM throughout.

Turning to `O=C(NNC(=O)c1cc2ccccc2[nH]1)c1cc2ccccc2[nH]1`, the TGI in assay [1], in assay [3], in assay [4], in assay [5], in assay [6] and in assay [8] was above 100 µM each time. Also, the TGI in assay [9], in assay [10], in assay [11] and in [12] was above 100 µM in each case.

`COc1ccc(CC(COS(=O)(=O)c2ccc(C)cc2)NS(=O)(=O)c2ccc(C)cc2)cc1` (stereo unspecified): the TGI in assay [1] is 35.8 µM; in [2] it was 49.2 µM; in assay [4], 31.6 µM; in [5], above 100 µM; in assay [6], 28.5 µM; in assay [7], 40.8 µM. Moreover, the TGI is 27.8 µM in assay [8]; above 100 µM in assay [9]; 38.9 µM in [10]; 17.1 µM in assay [11]; 43.8 µM in assay [12].

Consider `CCOc1cc(NC(C)=O)ccc1C(=O)NN1C(=O)/C(=C/c2ccc(Cl)cc2)N=C1c1ccccc1`, for which the TGI is 81.4 µM in assay [1]; above 100 µM in assay [2]; 93 µM in assay [3]; above 100 µM in assay [4]; above 100 µM in assay [5]; above 100 µM in assay [6]. Besides, the TGI in assay [7], in assay [8], in assay [9], in assay [10] and in assay [11] was above 100 µM in each case.

Consider `CC1=C(C(N)=O)C(c2ccncc2)C(C#N)C(=O)N1` (stereo unspecified), for which the TGI in assay [1], in assay [2], in assay [3], in assay [4], in assay [5] and in assay [6] was above 100 µM each time. Besides, the TGI in assay [7], in [10], in [11] and in [12] was above 100 µM in each case.

As for `COC(=O)[C@@H](N1C(=O)c2ccccc2C1=O)C1(C)CC(Cl)=NO1` (stereo partly specified), the TGI in assay [1] is 99.7 µM; in assay [2], above 100 µM; in assay [3], above 100 µM; in assay [4], above 100 µM; in assay [6] it was above 100 µM; in assay [7], above 100 µM. The TGI is above 100 µM in [8]; 37 µM in assay [9]; above 100 µM in [10]; above 100 µM in assay [11]; above 100 µM in assay [12].

Turning to `CC12CCC(C(=Nc3ccc([N+](=O)[O-])cc3)C1=O)C2(C)C` (stereo unspecified), the TGI was above 100 µM in assay [1]; above 100 µM in assay [2]; above 100 µM in assay [4]; 31.3 µM in assay [5]; 64.6 µM in [6]; 99.5 µM in [7]. The TGI was 55.1 µM in assay [8]; 55.3 µM in assay [9]; above 100 µM in assay [10]; 44.9 µM in assay [11]; above 100 µM in assay [12].

For `CCO/C=N\C1=C(C#N)SC2=N/C(=C\c3ccco3)C(=O)N21`, the TGI in assay [1], in [2], in assay [3], in [4], in assay [5] and in [6] was above 100 µM each time. For the same compound, the TGI in [7], in assay [8], in assay [9], in assay [10] and in assay [11] was above 100 µM in each case.

As for `CCOC(=O)c1nc2ccccc2nc1Oc1ccc(F)cc1`, the TGI in assay [1], in [2], in [3], in assay [4], in assay [5] and in [6] was above 100 µM in each case. For the same compound, the TGI in assay [8], in assay [9], in [10], in [11] and in assay [12] was above 100 µM each time.
